# Measurements published in patent publication US20100129319A1, “TREATMENT OF DISEASE OR INJURY OF THE NERVOUS SYSTEM USING AGENTS THAT DECREASE THE ACTIVITY OF THE MELANOCORTIN 4 RECEPTOR” (priority 2006, published 2010).
# Bridges are numbered along the chain shown (N, C = ends). [ ]: non-standard residue; d: D form. d2Nal = N[C@H](Cc1ccc2ccccc2c1)C(=O)O; dPhe(diCl) = diCl-D-Phe
# Legend:
# [1] = i.c.v. 2×1 nanomoles daily for 6 days or 0.16 nanomoles per hour for 2 weeks; cited from earlier work
# adult neural stem cells [2] = test: BrdU incorporation ELISA in adherent cultures; type: cell-based, mice; settings: 1-100 nM, 3 days, vs control
# Description: (§1) The anterior lateral wall of the lateral ventricle wall (LVW) of 5 week old mice was enzymatically dissociated at 37° C. for 20 min in 0.8 mg/mL hyaluronidase and 0.5 mg/mL trypsin in DMEM containing 4.5 mg/mL glucose and 80 units/mL DNase. The cells were diluted in 5 mL of DMEM/F12 medium (containing B27 supplement, […] HEPES Ph 7.4, 100 units/mL penicillin, and 100 micrograms/mL streptomycin). After passing through a 70 micron strainer, the cells were pelleted at 240×g for 5 minutes, washed and recentrifuged. The supernatant was subsequently removed and the cells resuspended in medium supplemented with 20 nanogram/mL EGF, plated out in culture dishes and incubated at 37° C. Neurosphere cultures were ready to be split approximately 7 days after plating.
# To split the neurosphere cultures, neurospheres were collected by centrifugation at 240×g for 5 minutes. The supernatant was discarded and the neurospheres were resuspended in 0.5 mL Trypsin/EDTA in HBSS (1×) and incubated at 37° C. for 2 minutes. During this period, the neurospheres were triturated gently to aid dissociation. Following a further 2 min incubation at 37° C. and trituration, 2 volumes of DMEM-F12+B27 medium were added. […]
# DNA synthesis is commonly used to measure cell proliferation. […] After incorporation if the thymidine analogue into DNA, BrdU was detected by immunoassay. […]
# [3] = test system: neuronal stem/progenitor cell proliferation in the SVZ; settings: i.c.v. infusion of 6.25, 62.5 or 625 ng/day for two weeks
# Description: To further characterize MC4R antagonist-stimulation of neogenesis, in vivo studies were performed. The effect of HS014 on proliferation (BrdU incorporation) was tested over a two week period at doses ranging from 6.25 to 625 ng/24h. Administration was done by i.c.v. infusion into the right lateral ventricle. BrdU was administered together with HS014 i.c.v. The animal's body weight was measured throughout the experiment. After termination of the experiment, BrdU expression was detected by immunohistochemistry on brain sections from the subependymal layer of the lateral ventricle wall as well as on the sub granular cells in dentate gyrus. […]
# As an additional marker for understanding whether a dose that is effective in eliciting a response controlled by the central nervous system, weight gain was also monitored throughout the experiment by weighing the animals. […]
# At the end of the experiment the rats were anaesthetized with sodium pentobarbital (120 mg, i.p.) and transcardially perfused with 90 ml of 0.9% NaCl and 4% PFA solution. […] As detection, Vectastain Elite (Vector) 1/100 was used and finally, developing was done by Sigma fast DAB tablet monitored in microscope, sections were then counterstained by HTX followed by dehydration and clearing.
# Quantification was performed using a Nikon eclipse E6000 microscope at a magnification of 40×. […]
# adult neural stem cells [4] = test: ATP assay (intracellular ATP, cell number) in suspension cultures; type: cell-based, mice; settings: for ATP levels: 1-100 nM, 3 days, suspension cultures, vs control
# Description: as §1
# To split the neurosphere cultures, neurospheres were collected by centrifugation at 240×g for 5 minutes. The supernatant was discarded and the neurospheres were resuspended in 0.5 mL Trypsin/EDTA in HBSS (1×) and incubated at 37° C. for 2 minutes. During this period, the neurospheres were triturated gently to aid dissociation. Following a further 2 min incubation at 37° C. and trituration, 2 volumes of DMEM-F12+B27 medium were added. The cells were pelleted at 220×g for 4 min and resuspended in DMEM/F12+B27-medium containing 10 ng/mL EGF and 5 ng/mL bFGF. Subsequently the cultures were plated out and incubated at 37° C.
# Cells were harvested split as in example 1, except for omission of the growth factors in the media, and seeded as suspension cells, at a density of 10,000 cells/well on 96-well plates in DMEM/F12 supplemented with 1, 10 or 100 nM MC4R antagonist or without (control cells). Alternatively, adherent cells were seeded at a density of 30,000 cells/well on poly-D-lysine-coated 96-well plates in DMEM/F12 supplemented with 1% fetal calf serum (FCS). […]
# The following experiment was performed in quadruplicate. […] Intracellular ATP was measured using a Cell Viability kit SL according to the manufacturer's instructions (#188-441, BioThema, Sweden). […]
# [5] = Body weight during i.c.v. infusion (Example 4); type: in vivo, rats
# Description: BrdU was administered together with HS014 i.c.v.
# MC4R = MC4R (Homo sapiens, UniProt P32245); settings: cited from earlier work; for Selectivity (over MC3): MC4R over MC3; for Ki: read-out: Affinity for MC4R (Ki)
# MC4R, sequence (P32245 whole entry, species assumed): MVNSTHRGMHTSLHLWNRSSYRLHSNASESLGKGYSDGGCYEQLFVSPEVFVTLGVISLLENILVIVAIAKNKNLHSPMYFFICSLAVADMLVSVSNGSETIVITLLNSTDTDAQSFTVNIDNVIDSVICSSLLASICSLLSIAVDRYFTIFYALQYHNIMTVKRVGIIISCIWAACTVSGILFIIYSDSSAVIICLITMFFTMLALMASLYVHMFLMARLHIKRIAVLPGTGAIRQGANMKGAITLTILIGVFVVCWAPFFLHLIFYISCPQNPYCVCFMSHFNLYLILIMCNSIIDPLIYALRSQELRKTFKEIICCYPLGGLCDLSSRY
# [6] = test system: 6-OHDA-lesioned rat model of Parkinson's disease; test: Amphetamine-induced rotation in the 6-OHDA-lesioned rat model of Parkinson's disease (Example 5); type: in vivo; settings: 62.5 ng/day i.c.v. for 2 weeks
# From the text: In this study, the neurorestorative action of HS014 (from Sigma Aldrich) was investigated in the 6-hydroxydopamine (6-OHDA)-lesioned rat model of Parkinson's disease where the animals have a partial, unilateral loss of dopaminergic neurons. The lesion is induced by a single injection of 6-OHDA in the median forebrain bundle (see below). Upon amphetamine stimulation, the lesioned animals will display ipsiversive rotational behavior due to the imbalance in dopamine release resulting from the unilateral loss of dopaminergic cells. This allows the functional effects of a compound tested in this model to be quantified by counting the number of amphetamine-induced rotations.
# Male Sprague-Dawley rats weighing 280-320 g were housed in a temperature-controlled room under a 12 h light/dark cycle with free access to food and water. Thirty minutes prior to surgery, animals were injected intraperitoneally with pargyline (5 mg/kg) and desipramine (25 mg/kg). Rats were then placed in a stereotactic frame under general anaesthesia (Halothane). A small bur-hole was made in the right side of the skull. Each animal was given a unilateral injection of 4 μg, 6-OHDA (in 2 μl sterile water with 0.1% ascorbic acid) into the right medial forebrain bundle at co-ordinates −2.8 mm from bregma, 2 mm lateral to the midline, and 8.6 mm below skull according to the atlas of Paxinos and Watson. The 6-OHDA injection was made over a 5 min period using a 5 μl Hamilton syringe. The rats were allowed to recover for 5 weeks following the lesion. The animals were then implanted with an Alzet minipump attached to a cannula to allow infusion of HS014 or vehicle into the right lateral ventricle over a period of 2 weeks. The Alzet minipump was removed […].
# 24 rats were divided into 2 groups, individual rats being randomly assigned to a treatment group based on their baseline rotation (5 weeks post lesion) so they were equally distributed. […] Rotational activity was measured by counting the total number of turns for the duration of the experiment. […] Body weight was also recorded weekly. […]
# MC3 = MC3 (Homo sapiens, UniProt P41968); settings: printed in the column Selectivity (over MC3); cited from earlier work
# MC3, sequence (P41968 whole entry, species assumed): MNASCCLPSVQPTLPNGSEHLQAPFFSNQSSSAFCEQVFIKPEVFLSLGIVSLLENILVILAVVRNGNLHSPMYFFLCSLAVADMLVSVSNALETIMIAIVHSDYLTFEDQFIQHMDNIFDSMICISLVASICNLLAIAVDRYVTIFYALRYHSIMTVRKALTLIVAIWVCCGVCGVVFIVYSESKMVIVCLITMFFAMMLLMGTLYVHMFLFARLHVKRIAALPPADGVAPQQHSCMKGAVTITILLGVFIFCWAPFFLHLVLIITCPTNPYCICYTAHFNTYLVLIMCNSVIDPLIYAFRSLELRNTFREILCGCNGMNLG
# [7] = molecular target: melanocortin 4 receptor (MC4R), murine (Mus musculus) (UniProt P56450); test: cell-based or functional assay
# melanocortin 4 receptor (MC4R), murine (Mus musculus), sequence (P56450 whole entry): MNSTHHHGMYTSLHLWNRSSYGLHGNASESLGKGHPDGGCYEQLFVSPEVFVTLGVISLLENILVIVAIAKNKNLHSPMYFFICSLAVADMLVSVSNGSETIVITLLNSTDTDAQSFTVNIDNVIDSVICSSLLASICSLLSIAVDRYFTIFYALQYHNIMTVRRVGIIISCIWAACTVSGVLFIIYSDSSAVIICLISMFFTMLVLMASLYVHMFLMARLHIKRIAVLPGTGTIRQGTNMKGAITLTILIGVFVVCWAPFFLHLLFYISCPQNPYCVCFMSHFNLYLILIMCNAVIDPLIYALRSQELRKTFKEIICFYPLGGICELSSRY
compound,measurement,setting,value
[acetyl group]-Cys-Glu-His-(D-2-Nal)-Arg-Trp-Gly-Cys-Pro-Pro-Lys-Asp-[amide group] (Ac-CEH[d2Nal]RWGCPPKD-NH2; disulfide 1-8 (inferred)) [HS014],food intake and body weight,[1],considerable increase in food intake and body weight
same,BrdU incorporation,adult neural stem cells [2],increase BrdU incorporation
same,"dose with greatest effect on neuronal stem/progenitor cell proliferation (BrdU counts, SVZ)",[3],62.5 ng/day
same,ATP levels,adult neural stem cells [4],increase ATP levels
same,dose at which weight gain was first significant,[5]; i.c.v. infusion for two weeks,62.5 ng/day
same,dose with greatest weight gain,[5]; i.c.v. infusion for two weeks,625 ng/day
same,weight gain,"[5]; i.c.v. infusion of 6.25, 62.5 or 625 ng/day for two weeks",increased in a dose-dependent manner
same,Selectivity (over MC3),MC4R,10-fold
same,Ki,MC4R,3.2 nM
same,persistence of improvement after administration was stopped,[6],maintained for at least two weeks
same,rotation at week 4 compared to pre-pump levels,[6]; then 2 weeks without treatment,approximately 30%
same,net ipsiversive rotations at weeks 1-4 compared to the pre-pump response,[6]; all P<0.01,significant reduction
HS024,Selectivity (over MC3),MC4R,20-fold
same,Ki,MC4R,0.29 nM
"NCCC(=O)N[C@H](Cc1ccc(Cl)cc1Cl)C(=O)N1CCN(c2ccccc2CNCCc2cccs2)CC1 [Compound10, 4-{(2R)-[3-Aminopropionylamido]-3-(2,4-dichlorophenyl)propionyl}-1-{2-[(2-thienyl)ethylaminomethyl]phenyl}piperazine]",potency in cAMP assay,MC3,No potency i cAMP
Agouti (87-132) (peptide),"proliferation in the ATP-assay, at 400 nM (times control)",[7],1.6
"Agouti (87-132): endogenous MC4R antagonist peptide analogue (TPLSAPCVATRNSCKPPAPACCDPCASCQCRFFRSACSCRVLSLNC; UniProt P42127 87-132, looked up, fragment)",increase in proliferation (ATP-assay),adult neural stem cells [4]; at 400 nM,1.6 times control
"[acetyl group]-Cys-Glu-His-(diCl-D-Phe)-Arg-Trp-Gly-Cys-Pro-Pro-Lys-Asp-[amide group] (Ac-CEH[dPhe(diCl)]RWGCPPKD-NH2; not fully specified (bridges); also: cyclic, bridge not given here) [HS028]",ATP levels,adult neural stem cells [4],increase ATP levels
same,Selectivity (over MC3),MC4R,80-fold
same,Ki,MC4R,0.95 nM
